Measured values as given in patent publication US20260374817A1, “COMPOSITIONS COMPRISING TREM-1 INHIBITORS AND USES THEREOF” (INOTREM, priority 2023, published 2026).
“Also recorded” adds a separate entry of the source.

Columns and labels:
TREM-1 pathway = assay: ROS production by LPS-stimulated human primary neutrophils (DCFDA, flow cytometry, MFI); assay type: cell-based; settings: for decrease of LPS-induced ROS production: 100 ng/mL LPS, 2 hours, 37 °C, LR12 or LR12-dimer 10 and 50 μg/mL; for TREM-1 inhibiting property / biological activity: preclinical in vitro pharmacology model
Experimental: FIG. 1 is a graph showing the results from flow cytometric quantification (DCFDA reduction) of neutrophils ROS production after 2 hours stimulation with LPS, LPS+10 μg/mL LR12, LPS+50 μg/mL LR12, LPS+10 μg/mL LR12-dimer (dimer), LPS+50 μg/mL LR12-dimer (dimer). […]; **p<0.01 (T test).
Neutrophils produce reactive oxygen species (ROS) in presence of LPS (lipopolysaccharides) following activation of the TREM-1 pathway and are thus used in the present example in order to assess TREM-1 activation and the biological activity of the LR12 dimer on the TREM-1 pathway. ROS production induced by TREM-1 activation and its modulation by LR12 can be quantified by flow cytometry. Any decrease in ROS production by LR12 (LPS+LR12 conditions) translates into a decrease in mean fluorescence intensity (MFI) as compared to the ROS production observed following the TREM-1 activation in presence of LPS (LPS condition).
Primary human neutrophils were isolated from the peripheral blood of healthy donors by immunomagnetic negative cell sorting with EasySep™ Human Monocyte/Neutrophil Isolation Kits (StemCell, Canada) following the manufacturer's instructions. Purity was assessed by flow cytometry. Cells were suspended in RPMI 1640 medium containing GlutaMAX and supplemented with 10% FCS, 25 mM HEPES, 100 U/ml penicillin and streptomycin before stimulation. Human primary neutrophils were incubated in resting conditions (also referred to as control conditions or ctrl 2), or with 100 ng/mL LPS from E. coli serotype 0127: B8 (Sigma-Aldrich), with or without LR12 or LR12-dimer (dimer) at the indicated concentrations.
Upon cleavage of the acetate groups by intracellular esterases and oxidation, the nonfluorescent DCFDA is converted to the highly fluorescent 2′,7′-dichlorofluorescein (DCF). 2.5×10^5 isolated human neutrophils were incubated 2 hours at 37 °C-5% CO2 with 5 μM of DCFDA, with or without 100 ng/mL LPS, and with or without LR12 or LR12-dimer (dimer) at the indicated concentrations. Data were acquired using flow cytometry. Results are expressed as mean fluorescence intensity (MFI).

[1] = Solubility of LR12 in formulations / screening of solubility aids; assay type: physicochemical
Experimental: Briefly, to reduce the formation of disulfide bridges, the pH during the formulation process was reduced to below 6.0. However, LR12 contains 4 acidic, negatively charged amino acids, namely glutamate (Glu) and aspartate (Asp) and no basic amino acids.
To solve this problem, solubility aids were screened at pH 5.5 and 6.5.
The purified substance of LR12 peptide (of example 2) is formulated using the following excipients: 50 mM sodium citrate pH 5.5; 50 mM NaCl.
The purified substance of LR12 peptide (of example 2) is formulated using the following excipients: 50 mM sodium phosphate pH 6.5; 50 mM NaCl.
The purified substance of LR12 peptide (of example 2) is formulated using the following excipients: 50 mM sodium citrate pH 5.5; 200 mM mannitol.
The purified substance of LR12 peptide (of example 2) is formulated using the following excipients: 50 mM sodium citrate pH 5.5; 150 mM betaine.
The purified substance of LR12 peptide (of example 2) is formulated using the following excipients: 5 0 mM sodium citrate pH 5.5; 50 mM lysine; 50 mM NaCl.
The purified substance of LR12 peptide (of example 2) is formulated using the following excipients: 50 mM sodium citrate pH 5.5; 50 mM arginine.
The purified substance of LR12 peptide (of example 2) is formulated using the following excipients: 25 mM sodium citrate pH 5.5; 225 mM arginine; 65 mM HCl.
Formulations using incremental concentrations of the purified substance of LR12 peptide (of example 2) and incremental concentrations of the following excipients: Arginine 90 to 420 mM, using only HCl for pH adjustment to 5.5.

TREM-1 signaling = settings: Derive et al., 2012; cited from earlier work
[2] = tested on: adult minipig model of induced sepsis; settings: after induction of fecal peritonitis; Derive et al., 2013; cited from earlier work

Structure (SMILES) | decrease of LPS-induced ROS production (TREM-1 pathway) | TREM-1 inhibiting property / biological activity (TREM-1 pathway) | TREM-1 inhibiting property / biological activity (TREM-1 pathway; listed as LR12-dimer) | solubility below pH 5.0 ([1]; below pH 5.0) | solubility with solubility aids (no improvement) ([1]; pH 5.5 and 6.5, Tween 20, mannitol, sucrose, trehalose, betaine, urea, glutathione, ammonium acetate, citrate) | solubility ([1]; screened at pH 5.5 and 6.5, only by adding lysine or arginine or histidine, read-out: solubility reached with positively charged solubility enhancing agents) | anti-inflammatory properties (TREM-1 signaling) | cardiovascular failure [2] | survival [2]
CSCC[C@H](NC(=O)[C@H](CSSC[C@H](NC(=O)CNC(=O)[C@H](Cc1ccc(O)cc1)NC(=O)[C@H](CCC(=O)O)NC(=O)CNC(=O)[C@H](C)NC(=O)[C@H](CC(=O)O)NC(=O)[C@H](CCC(=O)O)NC(=O)[C@H](CCC(=O)O)NC(=O)[C@H](CCC(N)=O)NC(=O)[C@@H](N)CC(C)C)C(=O)N[C@@H](CCSC)C(N)=O)NC(=O)CNC(=O)[C@H](Cc1ccc(O)cc1)NC(=O)[C@H](CCC(=O)O)NC(=O)CNC(=O)[C@H](C)NC(=O)[C@H](CC(=O)O)NC(=O)[C@H](CCC(=O)O)NC(=O)[C@H](CCC(=O)O)NC(=O)[C@H](CCC(N)=O)NC(=O)[C@@H](N)CC(C)C)C(N)=O [LR12 dimer] | not able to decrease the production of ROS by LPS-activated neutrophils | did not display any TREM-1 inhibiting property; also recorded: inactive in a preclinical in vitro pharmacology model; also recorded: biologically inactive | not able to induce any pharmacological inhibition of TREM-1 | – | – | – | – | – | –
CSCC[C@H](NC(=O)[C@H](CS)NC(=O)CNC(=O)[C@H](Cc1ccc(O)cc1)NC(=O)[C@H](CCC(=O)O)NC(=O)CNC(=O)[C@H](C)NC(=O)[C@H](CC(=O)O)NC(=O)[C@H](CCC(=O)O)NC(=O)[C@H](CCC(=O)O)NC(=O)[C@H](CCC(N)=O)NC(=O)[C@@H](N)CC(C)C)C(N)=O [LR12] | able to decrease in a dose-dependent manner the LPS-induced release of ROS | – | – | barely soluble below pH 5.0 | failed to improve the solubility of LR12 | 40 mg/mL | exhibit anti-inflammatory properties by inhibiting TREM-1 signaling | reduced cardiovascular failure | improved survival
